Measured values taken from patent publication US5726177A, “Indole-derived arylpiperazines as ligands for 5HT1 -like, 5HT1B and 5HT1D receptors” (Pierre Fabre Medicament, priority 1993, dated 1998).
Counter-ions that a name gives are not always drawn. Like-named read-outs stand apart in the source and are kept apart here.

Experiments:
human 5HT1Da receptor = human 5HT1Da receptor (Homo sapiens, UniProt P28221); experiment: Binding to cloned human 5HT1Da receptor
Procedure: (§1) Human 5HT1Da and 5HT1Db receptors were cloned according to the sequences published by M. Hamblin and M. Metcalf, Mol. Pharmacol., 40, 143 (1991) and Weinshenk et al., Proc. Natl. Acad. Sci., 89, 3630 (1992).
(§2) The transient transfection and the stable transfection of the genes of these receptors was carried out in Cos-7 and CHO-K1 cell lines by using an electroporator.
(§3) The binding of the derivatives of the present invention with human 5HT1Da, 5HT1Db and 5HT1A receptors was studied according to the method described by P. Pauwels and C. Palmier (Neuropharmacology, 33, 67, 1994).
(§4) The incubation media for these binding measurements comprise 0.4 ml of cell membrane preparation, 0.05 ml of a tritiated ligand [[3H]-SCT (final concentration: 2 nM) for the 5HT1Da and 5HT1Db receptors and [3H]-80H-DPAT (final concentration: 1 nM) for the 5HT1A receptor] and 0.05 ml of the molecule to be tested (final concentrations from 0.1 nM to 1000 nM) or 10 μM (final concentration) of serotonin (5HT1Da and 5HT1Db) or 1 μM (final concentration) of spiroxatrin (5HT1A ).

human 5HT1Db receptor [1] = target: T1, human 5HT1Db receptor (Homo sapiens, UniProt P28222); experiment: Binding to cloned human 5HT1Db receptor
Procedure: as §1, §2, §3, §4

human 5HT1A receptor = target: T2, human 5HT1A receptor (Homo sapiens, UniProt P08908); experiment: Binding to human 5HT1A receptor (HeLa HA7 cell line)
T2 sequence (P08908 1-422): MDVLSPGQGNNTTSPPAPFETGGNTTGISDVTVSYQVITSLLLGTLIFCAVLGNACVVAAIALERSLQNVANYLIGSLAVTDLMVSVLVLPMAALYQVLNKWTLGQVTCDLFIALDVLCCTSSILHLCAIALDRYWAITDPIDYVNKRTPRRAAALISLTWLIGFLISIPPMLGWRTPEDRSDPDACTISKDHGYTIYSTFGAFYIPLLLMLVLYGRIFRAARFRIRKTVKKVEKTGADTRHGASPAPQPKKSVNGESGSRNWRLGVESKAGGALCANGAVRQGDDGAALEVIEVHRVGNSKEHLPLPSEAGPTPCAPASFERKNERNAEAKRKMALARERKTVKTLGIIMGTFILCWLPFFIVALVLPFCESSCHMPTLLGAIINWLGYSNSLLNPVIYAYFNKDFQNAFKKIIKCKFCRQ
Procedure: The HeLa HA7 cell line expressing the 5HT1A human receptor was obtained from Tulco (Duke Univ., Durham, N.C., USA) and cultured according to the method of Fargin et al., J. Biol. Chem., 264, 14848 (1989).
as §3, §4

human 5HT1Db receptor [2] = target: T1, human 5HT1Db receptor; experiment: cell-based
Procedure: as §1, §2
The inhibition of the formation of cyclic AMP (stimulated by forskolin) mediated by the human 5HT1Db receptor was studied in CHO-K1 cells transfected by the receptor according to the technique described previously for the 5HT1B receptor (P. Pauwels and C. Palmier, Neuropharmacology, 33, 67, 1994).

[3] = human cloned receptor, [3H] ligand 2 nM, read-out: Ki 5HT1Da
[4] = human cloned receptor, [3H] ligand 2 nM, read-out: Ki 5HT1Db
[5] = HeLa HA7 cells, [3H]-DPAT ligand 1 nM, read-out: Ki 5HT1A
[6] = human 5HT1Db, CHO-K1 cells, read-out: EC50 (Inhibition of the 5HT1Db cyclase stimulated by forskolin)

Sequence of human 5HT1Da receptor (P28221 whole entry): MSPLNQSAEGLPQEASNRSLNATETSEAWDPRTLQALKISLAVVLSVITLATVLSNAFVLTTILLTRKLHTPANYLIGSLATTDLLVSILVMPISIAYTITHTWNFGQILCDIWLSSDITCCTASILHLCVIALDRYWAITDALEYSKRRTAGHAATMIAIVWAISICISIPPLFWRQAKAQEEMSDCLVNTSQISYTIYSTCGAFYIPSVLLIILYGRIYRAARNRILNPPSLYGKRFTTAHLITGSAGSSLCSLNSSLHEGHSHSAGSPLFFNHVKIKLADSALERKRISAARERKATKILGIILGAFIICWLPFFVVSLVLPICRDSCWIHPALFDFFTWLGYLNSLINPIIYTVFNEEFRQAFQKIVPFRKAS
T1 sequence (P28222 whole entry): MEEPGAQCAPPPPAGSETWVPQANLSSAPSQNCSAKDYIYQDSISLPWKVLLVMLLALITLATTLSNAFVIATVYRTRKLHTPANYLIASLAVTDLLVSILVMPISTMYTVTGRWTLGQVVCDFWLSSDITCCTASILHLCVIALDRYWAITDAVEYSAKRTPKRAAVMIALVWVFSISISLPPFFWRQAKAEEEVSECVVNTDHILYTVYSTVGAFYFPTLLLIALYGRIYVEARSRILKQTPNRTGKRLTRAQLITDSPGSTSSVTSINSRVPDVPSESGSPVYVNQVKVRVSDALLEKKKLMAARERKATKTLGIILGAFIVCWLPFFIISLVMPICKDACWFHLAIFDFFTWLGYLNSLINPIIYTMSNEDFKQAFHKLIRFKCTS

Structure (SMILES)	Ki (human 5HT1Da receptor; [3])	Ki (human 5HT1Db receptor [1]; [4])	Ki (human 5HT1A receptor; [5])	EC50 (human 5HT1Db receptor [2]; [6])	Ki (human 5HT1Da receptor)	Ki (human 5HT1Db receptor [1])	Ki (human 5HT1A receptor)	EC50 (human 5HT1Db receptor [2])
NCCc1c[nH]c2ccc(OCC(=O)N3CCN(c4ccc(NS(=O)(=O)c5ccc([N+](=O)[O-])cc5)cc4)CC3)cc12 [Example 26, N-[4-(4-{2-[3-(2-Aminoethyl)-1H-indol-5-yloxy]acetyl}piperazin-1-yl)phenyl]-4-nitrophenylsulfonamide hydrochloride]	0.25 nM	0.5 nM	16.5 nM	6.5 nM	–	–	–	–
NCCc1c[nH]c2ccc(OCC(=O)N3CCN(c4ccc(NC(=O)Oc5ccccc5)cc4)CC3)cc12 [Example 33, N-[4-(4-{2-[3-(2-Aminoethyl)-1H-indol-5-yloxy]acetyl}-piperazin-1-yl)phenyl]phenylcarbamate]	–	–	–	–	2.8 nM	2 nM	39 nM	9 nM
CS(=O)(=O)Nc1ccc(N2CCN(CCOc3ccc4[nH]cc(CCN)c4c3)CC2)cc1 [Example 41, N-[4-(4-{2-[3-(2-Aminoethyl)-1H-indol-5-yloxy]ethyl}piperazin-1-yl)phenyl]methanesulfonamide hydrochloride]	1.1 nM	0.7 nM	28 nM	2.6 nM	–	–	–	–
